In US8552021B2, “Phosphoramidate derivatives of nucleosides” (Janssen Products, L.P., priority 2009, dated 2013):
Like-named read-outs stand apart in the source and are kept apart here.

Tests used:
Assay type in all cases: cell-based
[1] = Cytotoxicity CC50 in Huh-7; details: human; Huh-7 cells
Excerpt: (§1) The in vitro antiviral activity against HCV of the compounds of formula I can be tested in a cellular HCV replicon system based on Lohmann et al. (1999) Science 285:110-113, with the further modifications described by Krieger et al. (2001) Journal of Virology 75: 4614-4624 (incorporated herein by reference), which is further exemplified in the examples section. This model, while not a complete infection model for HCV, is widely accepted as the most robust and efficient model of autonomous HCV RNA replication currently available. […] It will be appreciated that it is important to distinguish between compounds that specifically interfere with HCV functions from those that exert cytotoxic or cytostatic effects in the HCV replicon model, and as a consequence cause a decrease in HCV RNA or linked reporter enzyme concentration. Assays are known in the field for the evaluation of cellular cytotoxicity based for example on the activity of mitochondrial enzymes using fluorogenic redox dyes such as resazurin. Furthermore, cellular counter screens exist for the evaluation of non-selective inhibition of linked reporter gene activity, such as firefly luciferase. Appropriate cell types can be equipped by stable transfection with a luciferase reporter gene whose expression is dependent on a constitutively active gene promoter, and such cells can be used as a counter-screen to eliminate non-selective inhibitors.

[2] = test system: HCV type 1b replicon in Huh-7 luc/neo (Huh-Luc) cells; assay: HCV replicon assay (Huh-Luc luciferase); details: three days incubation, luciferase activity, average where tested more than once, read-out: EC50 1b ET
Excerpt: The compounds of formula I are examined for activity in the inhibition of HCV RNA replication in a cellular assay. […] The cellular assay can be based on a bicistronic expression construct, as described by Lohmann et al. (1999) Science vol. 285 pp. 110-113 with modifications described by Krieger et al. (2001) Journal of Virology 75: 4614-4624, in a multi-target screening strategy. The Bartenschlager replicon assays are available commercially from ReBLikon GmbH in Mainz, Germany.
In essence, the method is as follows.
The assay utilized the stably transfected cell line Huh-7 luc/neo (hereafter referred to as Huh-Luc). This cell line harbors an RNA encoding a bicistronic expression construct comprising the wild type NS3—NS5B regions of HCV type 1b translated from an Internal Ribosome Entry Site (IRES) from encephalomyocarditis virus (EMCV), preceded by a reporter portion (FfL-luciferase), and a selectable marker portion (neo^R, neomycine phosphotransferase). The construct is bordered by 5′ and 3′ NTRs (non-translated regions) from HCV type lb. Continued culture of the replicon cells in the presence of G418 (neo^R) is dependent on the replication of the HCV RNA. The stably transfected replicon cells that express HCV RNA, which replicates autonomously and to high levels, encoding inter alia luciferase, are used for screening the antiviral compounds.
The replicon cells were plated in well plates in the presence of the test and control compounds, which were added in various concentrations. Following an incubation of three days, HCV replication was measured by assaying luciferase activity (using standard luciferase assay substrates and reagents and a Perkin Elmer ViewLux™ ultraHTS microplate imager). Replicon cells in the control cultures have high luciferase expression in the absence of any inhibitor. The inhibitory activity of the compound on luciferase activity was monitored on the Huh-Luc cells, enabling a dose-response curve for each test compound. EC50 values were then calculated, which value represents the amount of the compound required to decrease by 50% the level of detected luciferase activity, or more specifically, the ability of the genetically linked HCV replicon RNA to replicate. Where a compound of formula (I) was tested more than once in the replicon assay, the average of all test results is given in Table 1.

Huh-7 = assay: Cytotoxicity CC50 in Huh-7; details: Huh-7 cells
Excerpt: as §1

## CCC(NP(=O)(OC[C@@]1(N=[N+]=[N-])O[C@@H](n2ccc(=O)[nH]c2=O)[C@@H](C)[C@@H]1O)Oc1ccccc1)C(=O)OC(C)C (stereo partly shown) [Compound I-34]
[1]
  CC50: > 98.4 µM
[2]; Hepatitis C virus, Huh-7, 72 h
  EC50: > 98.4 µM

## CCOC(=O)C(C)NP(=O)(OCC1(N=[N+]=[N-])OC(n2ccc(=O)[nH]c2=O)C(C)C1O)Oc1ccccc1 (mixture of isomers) [Compound I-16]
Huh-7
  CC50: > 98.3 µM
[2]
  EC50: 16.4 µM

## CC(NP(=O)(OC[C@@]1(N=[N+]=[N-])O[C@@H](n2ccc(=O)[nH]c2=O)[C@@H](C)[C@@H]1O)Oc1ccccc1)C(=O)OC1CCCCC1 (stereo partly shown) [Compound I-7]
[1]
  CC50: > 98.3 µM
[2]; Hepatitis C virus, Huh-7, 72 h
  EC50: 11.2 µM

## CC(C)OC(=O)C(C)(C)NP(=O)(OC[C@@]1(N=[N+]=[N-])O[C@@H](n2ccc(=O)[nH]c2=O)[C@@H](C)[C@@H]1O)Oc1ccccc1 (stereo partly shown) [Compound I-28]
[1]
  CC50: > 98.4 µM
[2]; Hepatitis C virus, Huh-7, 72 h
  EC50: > 98.4 µM

## CC(C)OC(=O)C(C)NP(=O)(OC[C@@]1(N=[N+]=[N-])O[C@@H](n2ccc(=O)[nH]c2=O)[C@@H](C)[C@@H]1O)Oc1ccccc1 (stereo partly shown) [Compound I-14]
[1]
  CC50: > 100 µM
[2]; Hepatitis C virus, Huh-7, 72 h
  EC50: 14.9 µM

## CC(NP(=O)(OC[C@@]1(N=[N+]=[N-])O[C@@H](n2ccc(=O)[nH]c2=O)[C@@H](C)[C@@H]1O)Oc1ccccc1)C(=O)OC1CCCC1 (stereo partly shown) [Compound I-6]
[1]
  CC50: > 98.3 µM
[2]; Hepatitis C virus, Huh-7, 72 h
  EC50: 10.5 µM

## CCCC(CCC)COC(=O)[C@H](C)NP(=O)(O)OC[C@@]1(N=[N+]=[N-])O[C@@H](n2ccc(=O)[nH]c2=O)[C@@H](C)[C@@H]1O [Compound I-9]
[2]
  EC50: 15.8 µM

## CC(NP(=O)(OC[C@@]1(N=[N+]=[N-])O[C@@H](n2ccc(=O)[nH]c2=O)[C@@H](C)[C@@H]1O)Oc1ccccc1)C(=O)OC(C)(C)C (stereo partly shown) [Compound I-31]
[1]
  CC50: > 98.4 µM
[2]; Hepatitis C virus, Huh-7, 72 h
  EC50: > 98.4 µM

## CCC(NP(=O)(O)OC[C@@]1(N=[N+]=[N-])O[C@@H](n2ccc(=O)[nH]c2=O)[C@@H](C)[C@@H]1O)C(=O)OCc1ccccc1 (stereo partly shown) [Compound I-33]
[2]; Hepatitis C virus, Huh-7, 72 h
  EC50: > 98.4 µM

## CCCOC(=O)C(C)NP(=O)(O)OC[C@@]1(N=[N+]=[N-])O[C@@H](n2ccc(=O)[nH]c2=O)[C@@H](C)[C@@H]1O (stereo partly shown) [Compound I-30]
[1]
  CC50: > 98.4 µM
[2]; Hepatitis C virus, Huh-7, 72 h
  EC50: > 98.4 µM

## CC(NP(=O)(OC[C@@]1(N=[N+]=[N-])O[C@@H](n2ccc(=O)[nH]c2=O)[C@@H](C)[C@@H]1O)Oc1ccccc1)C(=O)OCc1ccccc1 (stereo partly shown) [Compound I-1]
[1]
  CC50: > 100 µM
[2]; Hepatitis C virus, Huh-7, 72 h
  EC50: 5.95 µM

## CCOC(=O)[C@H](C)NP(=O)(OC[C@@]1(N=[N+]=[N-])O[C@@H](n2ccc(=O)[nH]c2=O)[C@@H](C)[C@@H]1O)Oc1ccccc1 (single isomer, unassigned) [Compound I-17]
Huh-7
  CC50: > 98.3 µM
[2]
  EC50: 17.3 µM

## COCCOC(=O)C(C)NP(=O)(OCC1(N=[N+]=[N-])OC(n2ccc(=O)[nH]c2=O)C(C)C1O)Oc1ccccc1 (mixture of isomers) [Compound I-23]
Huh-7
  CC50: > 98.3 µM
[2]
  EC50: 32.1 µM

## CCCCOC(=O)C(CC)NP(=O)(OC[C@@]1(N=[N+]=[N-])O[C@@H](n2ccc(=O)[nH]c2=O)[C@@H](C)[C@@H]1O)Oc1ccccc1 (stereo partly shown) [Compound I-20]
[1]
  CC50: > 73.9 µM
[2]; Hepatitis C virus, Huh-7, 72 h
  EC50: 28 µM

## CCCCOC(=O)C(C)(C)NP(=O)(O)OC[C@@]1(N=[N+]=[N-])O[C@@H](n2ccc(=O)[nH]c2=O)[C@@H](C)[C@@H]1O [Compound I-32]
[2]; Hepatitis C virus, Huh-7, 72 h
  EC50: > 98.4 µM

## CCCOC(=O)C(C)NP(=O)(OC[C@@]1(N=[N+]=[N-])O[C@@H](n2ccc(=O)[nH]c2=O)[C@@H](C)[C@@H]1O)Oc1ccccc1 (stereo partly shown) [Compound I-10]
[1]
  CC50: > 98.3 µM
[2]; Hepatitis C virus, Huh-7, 72 h
  EC50: 12.9 µM

## CC(NP(=O)(OCC1(N=[N+]=[N-])OC(n2ccc(=O)[nH]c2=O)C(C)C1O)Oc1cccc2ccccc12)C(=O)OCc1ccccc1 (mixture of isomers) [Compound I-11]
Huh-7
  CC50: > 100 µM
[2]
  EC50: 13.8 µM

## CCCCOC(=O)C(C)(C)NP(=O)(OC[C@@]1(N=[N+]=[N-])O[C@@H](n2ccc(=O)[nH]c2=O)[C@@H](C)[C@@H]1O)Oc1ccccc1 (stereo partly shown) [Compound I-13]
[1]
  CC50: 88.5 µM
[2]; Hepatitis C virus, Huh-7, 72 h
  EC50: 13.1 µM

## CCCCCOC(=O)C(C)NP(=O)(OC[C@@]1(N=[N+]=[N-])O[C@@H](n2ccc(=O)[nH]c2=O)[C@@H](C)[C@@H]1O)Oc1ccccc1 (stereo partly shown) [Compound I-5]
[1]
  CC50: > 98.3 µM
[2]; Hepatitis C virus, Huh-7, 72 h
  EC50: 9.48 µM

## CCCC(CCC)COC(=O)C(C)NP(=O)(OCC1(N=[N+]=[N-])OC(n2ccc(=O)[nH]c2=O)C(C)C1O)Oc1ccccc1 (mixture of isomers) [Compound I-3]
Huh-7
  CC50: 30.7 µM
[2]
  EC50: 8.06 µM

## CCOC(=O)C(C)NP(=O)(OCC1(N=[N+]=[N-])OC(n2ccc(=O)[nH]c2=O)C(C)C1O)Oc1cc(C)c(Cl)cc1C(C)C (mixture of isomers) [Compound I-24]
Huh-7
  CC50: 55 µM
[2]
  EC50: 37.7 µM

## C[C@@H]1[C@H](n2cc(I)c(=O)[nH]c2=O)O[C@@](COP(=O)(N[C@@H](C)C(=O)OCc2ccccc2)Oc2ccccc2)(N=[N+]=[N-])[C@H]1O (stereo partly shown) [Compound I-25]
[1]
  CC50: > 98.3 µM
[2]; Hepatitis C virus, Huh-7, 72 h
  EC50: 57.3 µM

## CCCCOC(=O)C(C)NP(=O)(OC[C@@]1(N=[N+]=[N-])O[C@@H](n2ccc(=O)[nH]c2=O)[C@@H](C)[C@@H]1O)Oc1ccccc1 (stereo partly shown) [Compound I-4]
[1]
  CC50: > 98.3 µM
[2]; Hepatitis C virus, Huh-7, 72 h
  EC50: 9.33 µM

## CCC(NP(=O)(O)OC[C@@]1(N=[N+]=[N-])O[C@@H](n2ccc(=O)[nH]c2=O)[C@@H](C)[C@@H]1O)C(=O)OC(C)C (stereo partly shown) [Compound I-27]
[2]; Hepatitis C virus, Huh-7, 72 h
  EC50: > 98.4 µM

## CCC(NP(=O)(O)OC[C@@]1(N=[N+]=[N-])O[C@@H](n2ccc(=O)[nH]c2=O)[C@@H](C)[C@@H]1O)C(=O)OC (stereo partly shown) [Compound I-29]
[1]
  CC50: > 98.4 µM
[2]; Hepatitis C virus, Huh-7, 72 h
  EC50: > 98.4 µM

## CCC(NP(=O)(OC[C@@]1(N=[N+]=[N-])O[C@@H](n2ccc(=O)[nH]c2=O)[C@@H](C)[C@@H]1O)Oc1ccccc1)C(=O)OC (stereo partly shown) [Compound I-26]
[1]
  CC50: > 98.3 µM
[2]; Hepatitis C virus, Huh-7, 72 h
  EC50: 74.7 µM

## C[C@@H]1[C@H](n2ccc(=O)[nH]c2=O)O[C@@](COP(=O)(NC(C)(C)C(=O)OCc2ccccc2)Oc2ccccc2)(N=[N+]=[N-])[C@H]1O (stereo partly shown) [Compound I-12]
[1]
  CC50: > 100 µM
[2]; Hepatitis C virus, Huh-7, 72 h
  EC50: 13.9 µM

## CCCC(CCC)COC(=O)C(C)NP(=O)(OCC1(N=[N+]=[N-])OC(n2ccc(=O)[nH]c2=O)C(C)C1O)Oc1ccc(Cl)cc1 (mixture of isomers) [Compound I-15]
Huh-7
  CC50: > 100 µM
[2]
  EC50: 15.3 µM

## CCC(NP(=O)(OC[C@@]1(N=[N+]=[N-])O[C@@H](n2ccc(=O)[nH]c2=O)[C@@H](C)[C@@H]1O)Oc1ccccc1)C(=O)OCc1ccccc1 (stereo partly shown) [Compound I-21]
[1]
  CC50: 81.8 µM
[2]; Hepatitis C virus, Huh-7, 72 h
  EC50: 29.2 µM

## COC(=O)C(C)NP(=O)(OC[C@@]1(N=[N+]=[N-])O[C@@H](n2ccc(=O)[nH]c2=O)[C@@H](C)[C@@H]1O)Oc1ccccc1 (stereo partly shown) [Compound I-18]
[1]
  CC50: > 98.3 µM
[2]; Hepatitis C virus, Huh-7, 72 h
  EC50: 27 µM

## CCOC(=O)[C@H](C)NP(=O)(OC[C@@]1(N=[N+]=[N-])O[C@@H](n2ccc(=O)[nH]c2=O)[C@@H](C)[C@@H]1O)Oc1ccccc1 (single isomer, unassigned) [Compound I-8]
Huh-7
  CC50: > 98.3 µM
[2]
  EC50: 12 µM
